Data set [1] concerns HIV-1. Briefly: HIV-1 replication in acutely infected H9 lymphocytes (p24 antigen ELISA). In kind it is cell-based, HIV-1 (IIIB isolate). Details: TI50: unit not given beside the values. The protocol: The cell lines were used in experiments only when in the logarithmic phase of growth, whereas uninfected peripheral blood mononuclear cells (PBMCs) were first stimulated with PHA (1 μg/mL) for three days. […] The cell lines and PBMCs were washed thoroughly to remove unadsorbed virions and resuspended at 4×10^5 cells/ml in complete medium or complete medium with 10% v/v interleukin 2 (IL-2), respectively. One ml. aliquots were placed into wells of 24-well culture plates containing an equal volume of test compounds (diluted in the appropriate culture medium). The toxicity of each compound was assessed by determining the number of compound-exposed uninfected cells that remained after four days at 37° C. and 5% CO2. A p24 antigen ELISA assay was used to determine the level of virus released in the medium of the HIV-infected cultures. The p24 antigen assay used a HIV-1 anti-p24 specific monoclonal antibody as the capture antibody coated onto 96-well plates. […] P24 in the culture medium was quantitated against a standard curve containing known amounts of p24. The effective (EC50) and inhibitory (IC50) concentrations for anti-HIV activity and cytotoxicity, respectively, were determined.
^a Concentration which inhibits viral replication in H9 cells by 50%
On the technique in general: An ELISA detects its analyte on a solid surface through an enzyme-linked reagent.

Data set [2] has as its target T1, HIV-1 reverse transcriptase (Human immunodeficiency virus type 1 group M subtype B, UniProt P04585).
T1 construct: virion associated HIV-1 IIIB reverse transcriptase; endogenous in cells; host or cells: HIV-1 IIIB virions lysed in Triton X-100
Briefly: HIV-1 reverse transcriptase assay. In kind it is biochemical, HIV-1 IIIB. The protocol: Ten microliters of virion associated HIV-1 IIIB reverse transcriptase in 1% Triton X-100 was mixed with 50 microliters of a reaction cocktail containing 50 mM Tri-HCl (pH 7.8), 75 mM KCl, 2 mM dithiothreitol, 5 mM MgCl2, 5 mg/ml poly (A) [Pharmacia], 0.25 unit/ml oligo(dT)[Pharmacia]; 0.05% Nonidet P40 and 10 mCi/ml ^32 P-dTTP in the presence of various concentrations of test compound. After incubating for one hour at 37° C., 40 microliters of the reaction mixture was applied to a Schleicher & Schuell NA 45 membrane saturated with […] (0.3M NaCl, 30 mM sodium citrate, pH 7.0) in a Schleicher & Schuell Minifold over one sheet of GB003 filter paper. Each well of the minifold was washed four times with 2×SSC. Autoradiography was performed, and radioactivity was quantified with a Packard Matrix (Meriden, Conn.) 9600 direct beta counter.

For data set [3], the system named is HIV induced membrane fusion. Nature of the data set: cells. In kind it is cell-based, HIV-1LAI. Conditions: for IC100: Human immunodeficiency virus 1, CEM-4, 24 h, read-out: Fusion Assay IC100. As to the method: MOLT-4 cells (7×10^4) were incubated with HIV-1LAI chronically infected CEM cells (10^4) in 96-well half-area flat-bottomed plates (Costar) in 100 microliters culture medium were incubated with the cell mixtures at 37° C. for 24 hours. Multinucleated syncytia were enumerated by microscopic examination of the entire contents of each well.

Data set [4] concerns cells of the fusion assay. Nature of the data set: Cytotoxicity noted in the fusion assay. To be noted: Table 1 footnotes; one-day fusion assay. In kind it is cell-based. As to the method:
Cell fusions were performed as described in Matthews et al., Proc. Natl. Acad. Sci. USA, 1987, 84, 5424-5428. MOLT-4 cells (7×10^4) were incubated with HIV-1LAI chronically infected CEM cells (10^4) in 96-well half-area flat-bottomed plates (Costar) in 100 microliters culture medium were incubated with the cell mixtures at 37° C. for 24 hours. Multinucleated syncytia were enumerated by microscopic examination of the entire contents of each well.
^d No noticeable cytotoxicity at 100 μg/mL
^e Toxic to the cells at 80 μg/mL in oneday fusion assay
^f Toxic at 40 μg/mL under the assay conditions

Data set [5] concerns HIV-1. Conditions: cited from earlier work.
The test system of data set [6] is HIV-1. Nature of the data set: HIV-1 replication in PHA-stimulated PBMCs (p24 antigen ELISA). In kind it is cell-based, HIV-1 (IIIB isolate). To be noted: for EC50: Human immunodeficiency virus 1, PBMC. Details: TI50: unit not given beside the values. As to the method: The T cell line, H9, and the promonocytic cell line, U937, were maintained separately in continuous culture with complete medium (RPMI 1640 with 10% fetal calf serum) at 5% CO2 and 37° C. The cell lines were used in experiments only when in the logarithmic phase of growth, whereas uninfected peripheral blood mononuclear cells (PBMCs) were first stimulated with PHA (1 μg/mL) for three days. All cell targets were incubated with HIV-1 (IIIB isolate, TCID50 10^4 IU/ml, at a multiplicity of infection of 0.01-0.01 IU/cell) for one hour at 37° C. and 5% CO2. The cell lines and PBMCs were washed thoroughly to remove unadsorbed virions and resuspended at 4×10^5 cells/ml in complete medium or complete medium with 10% v/v interleukin 2 (IL-2), respectively. One ml. aliquots were placed into wells of 24-well culture plates containing an equal volume of test compounds (diluted in the appropriate culture medium). The toxicity of each compound was assessed by determining the number of compound-exposed uninfected cells that remained after four days at 37° C. and 5% CO2. A p24 antigen ELISA assay was used to determine the level of virus released in the medium of the HIV-infected cultures. The p24 antigen assay used a HIV-1 anti-p24 specific monoclonal antibody as the capture antibody coated onto 96-well plates. Following a sample incubation period, rabbit serum containing antibodies for HIV-1 p24 was used to tag any p24 "captured: onto the microtiter well surface. Peroxidase conjugated goat anti-rabbit serum was then used to tag HIV-1 p24 specific rabbit antibodies that had complexed with captured p24. […] The cutoff for the p24 ELISA assay was 12.5 pg/ml. P24 in the culture medium was quantitated against a standard curve containing known amounts of p24. The effective (EC50) and inhibitory (IC50) concentrations for anti-HIV activity and cytotoxicity, respectively, were determined.

Where [7] appears, read: Human immunodeficiency virus 1, H9, Table 1, inhibits viral replication in H9 cells by 50%, read-out: EC50.
Where [8] appears, read: Human immunodeficiency virus 1, Lymphocyte, Table 2, H9.
Setting [9] is: Table 1, H9 cells, therapeutic index.
Where [10] appears, read: Table 1, inhibit 50% of HIV-1 RT activity, read-out: HIV-RT Assay IC50.
Where [11] appears, read: Human immunodeficiency virus 1, Lymphocyte, acutely infected H9 lymphocytes.
Where [12] appears, read: acutely infected H9 lymphocytes.
The mark [13] stands for this setting: earlier data, H9 lymphocyte cells.
Where [14] appears, read: earlier data, HIV-1 replication in H9 lymphocyte cells.

Where two headings read alike, the source gives them in different places.

One may read the EC50 as the concentration needed to bring the measured effect to its halfway point. The term IC50 denotes the midpoint of a concentration-inhibition curve. As for `CC(C)[C@@H]1CC[C@]2(C(=O)O)CC[C@]3(C)[C@H](CC[C@@H]4[C@@]5(C)CC[C@H](OC(=O)COCC(=O)O)C(C)(C)[C@@H]5CC[C@]43C)[C@@H]12` [Compound 10, 3-O-diglycolyl-dihydrobetulinic acid], the EC50 in data set [1] (setting [7]) was 5.6 nM; in data set [1] (setting [8]), 3.2 ng/mL. Besides, the T.I. in data set [1] (setting [9]) is listed as 2,344.0. Besides, the TI50 in data set [1] (Table 2, H9) is on record as 2,344. The IC50 in data set [2] (setting [10]) is greater than 174 µM. Further, the IC100 in data set [3] amounted to 40 µg/mL. In data set [4], the “cytotoxicity in fusion assay (footnotes d, e, f)” value (“cytotoxicity in fusion assay” below) is given as “e (Toxic to the cells at 80 μg/mL in oneday fusion assay)”.

Take `C=C(C)[C@@H]1CC[C@]2(C(=O)O)CC[C@]3(C)[C@H](CC[C@@H]4[C@@]5(C)CC[C@H](OC(=O)CC(C)(C)C(=O)O)C(C)(C)[C@@H]5CC[C@]43C)[C@@H]12` [Compound 3, 3-O-(3',3'-dimethylsuccinyl)-betulinic acid]: the EC50 in data set [1] (Human immunodeficiency virus 1, Lymphocyte) is less than 0.017 nM. Besides, in data set [4], the “cytotoxicity in fusion assay” value is on record as “d (No noticeable cytotoxicity at 100 μg/mL)”.

As to `CC1(C)Oc2ccc3ccc(=O)oc3c2[C@@H](OC(=O)[C@@]23CC[C@@](C)(C(=O)O2)C3(C)C)[C@H]1OC(=O)[C@@]12CC[C@@](C)(C(=O)O1)C2(C)C` [DCK, 3',4'-di-O-(-)-camphanoyl-(+)-cis-khellactone], the “therapeutic index (T.I.)” value in data set [5] (H9 lymphocyte cells, background) is listed as 136,719. Also, the EC50 in data set [5] (HIV replication in H9 lymphocyte cells, background) was 0.4 nM.

`CC(C)[C@@H]1CC[C@]2(C(=O)O)CC[C@]3(C)[C@H](CC[C@@H]4[C@@]5(C)CC[C@H](OC(=O)C(C)(C)CC(=O)O)C(C)(C)[C@@H]5CC[C@]43C)[C@@H]12` [Compound 7, 3-O-(2',2'-dimethylsuccinyl)-dihydrobetulinic acid]: the concentration giving a half-maximal response (EC50) in data set [1] (setting [7]) and in data set [1] (setting [11]) was 560 nM in each case. Further, the T.I. in data set [1] (setting [9]) and in data set [1] (setting [12]) was 13.8 throughout.

With `C=C(C)[C@@H]1CC[C@]2(C(=O)O)CC[C@]3(C)[C@H](CC[C@@H]4[C@@]5(C)CC[C@H](OC(=O)COCC(=O)O)C(C)(C)[C@@H]5CC[C@]43C)[C@@H]12` [Compound 5, 3-O-diglycolyl-betulinic acid], the values for the EC50 in data set [1] (setting [7]) and in data set [1] (setting [8]) were 10 nM and 10 ng/mL, respectively. For the same compound, in data set [1] (setting [9]), the T.I. is listed as 1,172.0. Moreover, in data set [1] (Table 2, H9), the TI50 is given as 1,500. Besides, the half-maximal inhibitory concentration (IC50) in data set [2] (setting [10]) is greater than 175 µM. In addition, the IC100 in data set [3] worked out at 40 µg/mL. The “cytotoxicity in fusion assay” value in data set [4] is listed as “e (Toxic to the cells at 80 μg/mL in oneday fusion assay)”.

In the case of `C=C(C)[C@@H]1CC[C@]2(C(=O)O)CC[C@]3(C)[C@H](CC[C@@H]4[C@@]5(C)CC[C@H](OC(=O)CC(C)(C)CC(=O)O)C(C)(C)[C@@H]5CC[C@]43C)[C@@H]12` [Compound 4, 3-O-(3',3'-dimethylglutaryl)-betulinic acid], in data set [2] (setting [10]), the IC50 is greater than 167 µM. The IC100 in data set [3] worked out at 30 µg/mL. The “cytotoxicity in fusion assay” value in data set [4] is “d (No noticeable cytotoxicity at 100 μg/mL)”.

For `CC(C)[C@@H]1CC[C@]2(C(=O)O)CC[C@]3(C)[C@H](CC[C@@H]4[C@@]5(C)CC[C@H](O)C(C)(C)[C@@H]5CC[C@]43C)[C@@H]12` [Compound 6, dihydrobetulinic acid, reference compound], the EC50 in data set [1] (setting [7]) is 900 nM; in data set [5] (earlier data, anti-HIV activity, unit inferred), 900 nM. The T.I. in data set [1] (setting [9]) is 14.0; in data set [5] (setting [13]), 14. The compound also displayed an IC50 in data set [2] greater than 218 µM. Further, the IC100 in data set [3] is greater than 100 µg/mL.

On to `C=C(C)[C@@H]1CC[C@]2(C(=O)O)CC[C@]3(C)[C@H](CC[C@@H]4[C@@]5(C)CC[C@H](O)C(C)(C)[C@@H]5CC[C@]43C)[C@@H]12` [Compound 1, betulinic acid, reference compound], for which the EC50 in data set [1] (setting [7]) and in data set [5] (setting [14]) was 1400 nM each time. For the same compound, the IC50 in data set [2] (setting [10]) is greater than 219 µM. Moreover, the IC100 in data set [3] is greater than 100 µg/mL.

As to `CC(C)[C@@H]1CC[C@]2(C(=O)O)CC[C@]3(C)[C@H](CC[C@@H]4[C@@]5(C)CC[C@H](OC(=O)CC(C)(C)C(=O)O)C(C)(C)[C@@H]5CC[C@]43C)[C@@H]12` [Compound 8, 3-O-(3',3'-dimethylsuccinyl)-dihydrobetulinic acid], the EC50 in data set [1] (setting [11]) is less than 0.017 nM; in data set [6] it was 1.75 ng/mL; in data set [6] (PHA-stimulated PBMCs, read-out: EC50), 2.99 nM. Besides, the T.I. in data set [1] (setting [9]) is 14,000-98,000; in data set [1] (setting [12]), “more than 400,000”. Further, the “T.I. values in PBMCs compared with H9 cells” value in data set [6] (PBMCs versus H9 cells) was “lower than those in H9 cells”. Also, the TI50 in data set [6] (Table 2, PBMCs) is on record as 2,286. The concentration for half-maximal inhibition (IC50) in data set [2] (setting [10]) was greater than 170 µM. The IC100 in data set [3] was 20 µg/mL. For the same compound, the “cytotoxicity in fusion assay” value in data set [4] is reported as “f (Toxic at 40 μg/mL under the assay conditions)”.

As for `C=C(C)[C@@H]1CC[C@]2(C(=O)O)CC[C@]3(C)[C@H](CC[C@@H]4[C@@]5(C)CC[C@H](OC(=O)C(C)(C)CC(=O)O)C(C)(C)[C@@H]5CC[C@]43C)[C@@H]12` [Compound 2, 3-O-(2',2'-dimethylsuccinyl)betulinic acid], the EC50 in data set [1] (setting [7]) and in data set [1] (setting [11]) was 2700 nM throughout. In addition, the T.I. in data set [1] (setting [9]) and in data set [1] (setting [12]) was 5.9 throughout. Also, the IC50 in data set [2] (setting [10]) was greater than 171 µM. In addition, the IC100 in data set [3] was found to be 20 µg/mL. The “inhibition of syncytia formation, compounds 2 and 3 compared” value in data set [3] (compound 3 versus compound 2) is recorded as “inhibited syncytia formation at the same concentration”. Also, the “cytotoxicity in fusion assay” value in data set [4] is given as “d (No noticeable cytotoxicity at 100 μg/mL)”.

For `CC(=O)[C@@H]1CC[C@]2(C(=O)O)CC[C@]3(C)[C@H](CC[C@@H]4[C@@]5(C)CC[C@H](O)C(C)(C)[C@@H]5CC[C@]43C)[C@@H]12` [platanic acid], the T.I. in data set [5] (setting [13]) is 14. For the same compound, the EC50 in data set [5] (setting [14]) is 6500 nM.
